In patent US4029780A, “3-Piperazinyl 1,2,4-benzothiadiazine 1,1-dioxide derivatives their compositions and method of use” (Dainippon Pharmaceutical Co., Ltd., priority 1974, dated 1977):

Experiments:
Male Wistar rats [1] = assay: Effect on urine volume and electrolyte excretion; type: in vivo, rat; details: 100 mg/kg p.o., urinary excretion over 5 hours
Description: Male Wistar rats weighing 220 to 260 g were used. Each test compound was suspended in a solution of tragacanth dissolved in a concentration of 0.5% in a 0.9% saline solution so that the volume of the resulting suspension to be administered would be always 25 ml/Kg. The test compounds were administered orally by the stomach tube to the animals at the prescribed doses. The animals were then placed in a metabolic cage and the urine was collected over a period of 5 hours. The total amount of sodium, potassium and chloride excreted was determined by Auto-Analyzer, made by Technicon Instruments Corporation.

[2] = cited from earlier work
Male Wistar rats [3] = assay: Effect on blood glucose (b), intraperitoneal; details: 300 mg/kg i.p.
Description: (b) Male Wistar rats weighing 260-285 g were used. […] 4 ml/kg of the above solution of each test compound was intraperitoneally administered to each animal. The blood samples were taken prior to dosing and 1, 3 and 6 hours after the administration and the plasma glucose levels were determined in a similar manner to that described in (a).

Male Wistar rats [4] = assay: Effect on blood glucose (a), oral; details: 300 mg/kg p.o.
Description: (a) Male Wistar rats weighing 190-210 g were used. Each test compound was suspended in a concentration of 150 mg/ml in a 0.5% aqueous tragacanth solution and orally administered at a dose of 300 mg/kg by the stomach tube.

[5] = well known; cited from earlier work
[6] = test system: Spontaneously hypertensive male rats; assay: Antihypertensive activity in spontaneously hypertensive rats (oral, 10 successive days); type: in vivo, rat; details: 10 mg/kg/day p.o.
Description: Spontaneously hypertensive male rats [SHR, Jap. Circ. J. 27, 282-93 (1963)] being 18-23 weeks of age and having systolic blood pressure levels of 170-190 mmHg were used. The test compounds were each suspended in a 0.5% aqueous tragacanth solution and administered orally in a dose of 10 mg/kg/day by stomach tube to SHR once a day for 10 successive days. The blood pressure of conscious SHR was measured prior to dosing and 5 hours after administration. It was also measured once daily over a period of 7 days after the end of the treatment period. The measurement of the blood pressure was made by a plethysmographtail method [Jap. Circ. J. 27, 282-93 (1963)].

Cl- (Male Wistar rats [1]): 0.20 mEq | K+ (Male Wistar rats [1]): 0.37 mEq | Na+ (Male Wistar rats [1]): 0.17 mEq | Na+/K+ (Male Wistar rats [1]): 0.51 | Blood glucose (Male Wistar rats [3]; 0 hr (prior to dosing)): 100 mg/dL | Blood glucose (Male Wistar rats [3]; 1 hr): 361 mg/dL | Blood glucose (Male Wistar rats [3]; 3 hr): 599 mg/dL | Blood glucose (Male Wistar rats [3]; 6 hr): 675 mg/dL | Blood glucose (Male Wistar rats [4]; 0 hr (prior to dosing)): 111 mg/dL | Blood glucose (Male Wistar rats [4]; 1 hr): 126 mg/dL | Blood glucose (Male Wistar rats [4]; 3 hr): 125 mg/dL | Blood glucose (Male Wistar rats [4]; 6 hr): 146 mg/dL | Blood glucose (Male Wistar rats [4]; 10 hr): 148 mg/dL
SMILES: CC1=Nc2ccc(Cl)cc2S(=O)(=O)N1 [Compound 3, 7-chloro-3-methyl-2H-1,2,4-benzothiadiazine 1,1-dioxide]
Diuretic action ([2]; known): no diuretic action | Antidiuretic activity ([2]; literature): antidiuretic effects (i.e., sodium and water retaining effect) | Hyperglycemic effects [5]: marked hyperglycemic effects | Blood pressure ([6]; day 0, 5 hours after administration): 155 mm Hg | Blood pressure ([6]; day 0, prior to dosing (0)): 173 mm Hg | Blood pressure ([6]; day 2, 5 hours after administration): 146 mm Hg | Blood pressure ([6]; day 2, prior to dosing (0)): 166 mm Hg | Blood pressure ([6]; day 4, 5 hours after administration): 151 mm Hg | Blood pressure ([6]; day 4, prior to dosing (0)): 159 mm Hg | Blood pressure ([6]; day 6, 5 hours after administration): 143 mm Hg | Blood pressure ([6]; day 6, prior to dosing (0)): 150 mm Hg | Blood pressure ([6]; day 8, 5 hours after administration): 137 mm Hg | Blood pressure ([6]; day 8, prior to dosing (0)): 153 mm Hg | Blood pressure ([6]; day 10, 24 hours after the final treatment): 144 mm Hg | Blood pressure ([6]; day 14, 120 hours after the final treatment): 175 mm Hg
